Source: patent publication US20090286722A1 (priority 2005, published 2009)

How the values were obtained:
ob/ob mice [1] = experiment: Once daily i.p. injection for 14 days in ob/ob mice
Protocol: (§2) Obese diabetic (ob/ob) mice derived from the colony maintained at Aston University, UK (23) were used at 12-16 weeks of age. […] Drinking water and standard rodent maintenance diet (Trouw Nutrition, Cheshire, UK) were freely available.
(§3) Food intake and body weight were recorded daily from 5 days before commencement of the treatment regimes. Plasma glucose and insulin concentrations (10:00 h) were monitored at 2-4 day intervals. […] All acute tests were commenced at 10:00 h. […] Serum samples were taken for determination of glucagon concentrations. All other blood samples were collected from the cut tip of the tail vein of conscious mice into chilled fluoride/heparin coated glucose microcentrifuge tubes (Sarstedt, Nümbrecht, Germany) at the times indicated in the Figures. Blood samples were immediately centrifuged using a Beckman microcentrifuge (Beckman Instruments, Galway, Ireland) for 30 seconds at 13,000×g. The resulting plasma was then aliquoted into fresh tubes and stored at −20° C. prior to glucose and insulin determinations.

ob/ob mice [2] = experiment: Glucose tolerance 4 hours after peptide administration in 18 hour fasted ob/ob mice; format: in vivo; settings: 25 nmoles/kg, glucose 18 mmoles/kg
dipeptidyl peptidase IV = dipeptidyl peptidase IV (Sus scrofa, UniProt P22411); experiment: DPP IV degradation, % intact peptide by HPLC; format: in vitro ADME, porcine; settings: pig, purified porcine dipeptidyl peptidase IV (DPP IV), 37° C., pH 7.8
dipeptidyl peptidase IV, sequence (P22411 whole entry): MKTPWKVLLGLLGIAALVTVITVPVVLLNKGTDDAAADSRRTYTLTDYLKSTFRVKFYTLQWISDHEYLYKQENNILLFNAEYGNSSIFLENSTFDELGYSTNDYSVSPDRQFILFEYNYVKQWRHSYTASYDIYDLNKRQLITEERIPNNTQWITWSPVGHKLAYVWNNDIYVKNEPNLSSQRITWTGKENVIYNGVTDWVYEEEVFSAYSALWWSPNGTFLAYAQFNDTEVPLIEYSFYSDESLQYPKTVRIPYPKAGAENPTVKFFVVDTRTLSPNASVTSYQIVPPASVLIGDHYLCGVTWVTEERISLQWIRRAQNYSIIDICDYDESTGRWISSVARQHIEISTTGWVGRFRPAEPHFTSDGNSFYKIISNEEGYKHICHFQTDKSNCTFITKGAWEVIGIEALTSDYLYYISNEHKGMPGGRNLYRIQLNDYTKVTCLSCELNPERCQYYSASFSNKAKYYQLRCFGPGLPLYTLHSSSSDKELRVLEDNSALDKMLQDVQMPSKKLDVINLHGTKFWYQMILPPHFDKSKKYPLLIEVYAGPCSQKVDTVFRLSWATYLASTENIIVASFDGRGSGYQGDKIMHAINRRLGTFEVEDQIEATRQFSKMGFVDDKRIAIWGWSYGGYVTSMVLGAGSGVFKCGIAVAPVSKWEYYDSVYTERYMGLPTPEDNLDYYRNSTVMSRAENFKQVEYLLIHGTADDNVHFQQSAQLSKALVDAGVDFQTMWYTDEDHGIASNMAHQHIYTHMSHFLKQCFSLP
Protocol: (§1) HPLC peak area data were used to calculate the percentage intact peptide remaining at the various time points during the incubation.

[3] = molecular target: purified porcine dipeptidyl peptidase IV (Sus scrofa, UniProt P22411); experiment: DPP IV degradation, % intact peptide by HPLC; format: in vitro ADME; settings: 37° C., pH 7.8
purified porcine dipeptidyl peptidase IV, sequence (P22411 whole entry): as above
Protocol: as §1

DPP IV = settings: cited: O'Harte 2002; Irwin 2005; cited from earlier work
ob/ob mice [4] = experiment: 24 hour plasma glucose and insulin profile after a single dose in non-fasted ob/ob mice; format: in vivo
Excerpt: Dose of 12.5 nmol kg^−1 was chosen to evaluate the longer-term duration of action of a single dose of native or fatty acid derivatised GIP in non-fasted ob/ob mice.

ob/ob mice [5] = experiment: Acute glucose lowering and insulin release, peptide given i.p. with glucose to 18 hour fasted ob/ob mice
Protocol: as §2, §3

[6] = after 14 daily injections, glucose 18 mmoles/kg
[7] = after 14 days, glucose 18 mmoles/kg with native GIP
[8] = 25 nmol/kg i.p. with glucose 18 mmol/kg

For `CCCCCCCCCCCCCCCC(=O)NCCCC[C@H](NC(=O)[C@H](Cc1c[nH]c2ccccc12)NC(=O)[C@H](CC(=O)O)NC(=O)[C@H](CC(N)=O)NC(=O)[C@H](CCCCN)NC(=O)[C@H](CCCCN)NC(=O)CNC(=O)[C@H](CCCCN)NC(=O)[C@H](CCC(N)=O)NC(=O)[C@H](C)NC(=O)[C@H](CC(C)C)NC(=O)[C@H](CC(C)C)NC(=O)[C@H](Cc1c[nH]c2ccccc12)NC(=O)[C@H](CC(N)=O)NC(=O)[C@@H](NC(=O)[C@H](Cc1ccccc1)NC(=O)[C@H](CC(=O)O)NC(=O)[C@H](CCC(N)=O)NC(=O)[C@H](CCC(N)=O)NC(=O)[C@H](Cc1c[nH]cn1)NC(=O)[C@@H](NC(=O)[C@H](CCCCN)NC(=O)[C@H](CC(=O)O)NC(=O)[C@H](CCSC)NC(=O)[C@H](C)NC(=O)[C@@H](NC(=O)[C@H](CO)NC(=O)[C@H](Cc1ccc(O)cc1)NC(=O)[C@H](CC(=O)O)NC(=O)[C@H](CO)NC(=O)[C@@H](NC(=O)[C@H](Cc1ccccc1)NC(=O)[C@@H](NC(=O)CNC(=O)[C@H](CCC(=O)O)NC(=O)[C@H](C)NC(=O)[C@@H](N)Cc1ccc(O)cc1)[C@@H](C)O)[C@@H](C)CC)[C@@H](C)CC)[C@@H](C)CC)C(C)C)C(=O)N[C@@H](Cc1c[nH]cn1)C(=O)N[C@@H](CC(N)=O)C(=O)N[C@H](C(=O)N[C@H](C(=O)N[C@@H](CCC(N)=O)C(=O)O)[C@@H](C)O)[C@@H](C)CC` [GIP(LysPAL^37)], which “effect on body weight” value (ob/ob mice [1]; 25 nmoles/kg/day, 14 days) is on record?
Its value is “no effect”.

And the “effect on food intake” value (ob/ob mice [1]; 25 nmoles/kg/day, 14 days)?
The value was “no effect”.

And the “non-fasting plasma insulin concentrations (tendency towards elevated)” value (ob/ob mice [1]; 25 nmoles/kg/day, 14 days)?
The value was “did not achieve statistical significance”.

What about the “non-fasting plasma glucose concentrations at 14 days versus control” value (ob/ob mice [1]; 25 nmoles/kg/day, day 14) of the same compound?
Its value is “significantly (p<0.05) lowered”.

And the “plasma glucagon on day 14 versus control” value (ob/ob mice [1]; 25 nmoles/kg/day, day 14)?
Its value is “no differences observed”.

What about the “islet area compared with saline-treated ob/ob mice” value (ob/ob mice [1]; after 14 daily injections) of the same compound?
Its value is “significant increases”.

What about the “number of pancreatic islets compared with saline-treated ob/ob mice” value (ob/ob mice [1]; after 14 daily injections) of the same compound?
The value was “significant increases”.

And the “pancreatic insulin content compared with saline-treated controls” value (ob/ob mice [1]; after 14 daily injections)?
The value was “did not affect”.

And the “pancreatic weight compared with saline-treated controls” value (ob/ob mice [1]; after 14 daily injections)?
The value was “did not affect”.

And the “insulinotropic response following i.p. glucose versus control” value (ob/ob mice [1]; [6])?
The value was “augmented”.

And the “overall glycaemic excursion after i.p. glucose versus control” value (ob/ob mice [1]; [6])?
The value was “significantly reduced”.

And the “plasma glucose response to 15 minutes feeding, at 15 minutes” value (ob/ob mice [1]; after 14 days, 18 hours fasted)?
Its value is “significantly lowered”.

What about the “plasma insulin response to 15 minutes feeding, at 15 minutes” value (ob/ob mice [1]; after 14 days, 18 hours fasted) of the same compound?
Its value is “significantly increased”.

What about the “overall insulinotropic response to feeding” value (ob/ob mice [1]; after 14 days, 18 hours fasted, AUC 0-105 min) of the same compound?
Its value is “overall increased insulinotropic response”.

And the “hypoglycemic action of insulin (insulin sensitivity), AUC and post injection values versus controls” value (ob/ob mice [1]; after 14 days, insulin 50 U/kg i.p.)?
Its value is “significantly augmented”.

What about the “glycaemic excursions after glucose with native GIP compared to control animals” value (ob/ob mice [1]; [7]) of the same compound?
Its value is “significantly decreased”.

And the “overall glucose-dependent insulinotropic response to native GIP” value (ob/ob mice [1]; [7])?
Its value is “significantly augmented”.

What about the “adverse effects following long-term administration” value (ob/ob mice [1]; long-term administration) of the same compound?
Its value is “No adverse effects were observed”.

And the “insulinotropic properties 4 hours after administration” value (ob/ob mice [2])?
The value was “less evident”.

And the “reduction of glycaemic excursion following i.p. glucose 4 hours after administration” value (ob/ob mice [2]; versus saline)?
Its value is 18%.

And the remaining at 2 h, 2 mM (dipeptidyl peptidase IV; 2 h incubation with DPP IV (5 mU), read-out: % Intact peptide remaining after time (h) 2)?
Its remaining at 2 h, 2 mM is 100%.

What about the remaining at 8 h, 2 mM (dipeptidyl peptidase IV; 8 h incubation with DPP IV (5 mU), read-out: % Intact peptide remaining after time (h) 8) of the same compound?
The remaining at 8 h, 2 mM was 100%.

And the remaining at 24 h, 2 mM (dipeptidyl peptidase IV; 24 h incubation with DPP IV (5 mU), read-out: % Intact peptide remaining after time (h) 24)?
The remaining at 24 h, 2 mM was 100%.

And the “% Intact peptide remaining after time (h) 0” value ([3]; 0 h incubation with DPP IV (5 mU))?
The value was 100%.

And the “% Intact peptide remaining after time (h) 24” value ([3]; 24 h incubation with DPP IV (5 mU))?
Its value is “remained fully intact”.

What about the “resistance to DPP IV degradation” value (DPP IV) of the same compound?
Its value is “increased resistance to DPP IV degradation”.

And the “effect on plasma glucose over 24 hours” value (ob/ob mice [4]; single 12.5 nmol/kg i.p.)?
The value was “significant (P<0.01) and sustained decrease”.

What about the “glucose concentrations at 24 hours and AUC values versus native GIP or saline treated controls” value (ob/ob mice [4]; single 12.5 nmol/kg i.p.) of the same compound?
The value was “significantly less”.

What about the “insulin concentrations from 4 to 24 hours versus controls” value (ob/ob mice [4]; single 12.5 nmol/kg i.p.) of the same compound?
Its value is “not significantly different”.

And the “time for which decline of plasma glucose was sustained after single injection” value (ob/ob mice [4]; single injection)?
Its value is “at least 24 hours”.

And the “glucose AUC response compared to native GIP” value (ob/ob mice [5]; [8])?
The value was “significant reduction”.

What about the “plasma glucose concentrations and AUC (0-60 min) compared to glucose alone” value (ob/ob mice [5]; [8]) of the same compound?
The value was “significantly reduced”.

What about the “overall enhancement of insulin release over native GIP” value (ob/ob mice [5]; 25 nmol/kg i.p. with glucose, insulin AUC 0-60 min) of the same compound?
The value was 2.7 fold.
